Source: ChEMBL document CHEMBL1136282, “Design and synthesis of small chemical inhibitors containing different scaffolds for lck SH2 domain” (Bioorg Med Chem Lett, 2003)
Square brackets hold non-standard residues; d marks the D form. Peptide text beside a SMILES is read from it. pY = N[C@@H](Cc1ccc(OP(=O)(O)O)cc1)C(=O)O

Target: Tyrosine-protein kinase Lck (Homo sapiens, UniProt P06239)
Test: Inhibition of binding to p56 Lck tyrosine kinase SH2 domain

Sequence of Tyrosine-protein kinase Lck (P06239 whole entry, the tested form may be a part): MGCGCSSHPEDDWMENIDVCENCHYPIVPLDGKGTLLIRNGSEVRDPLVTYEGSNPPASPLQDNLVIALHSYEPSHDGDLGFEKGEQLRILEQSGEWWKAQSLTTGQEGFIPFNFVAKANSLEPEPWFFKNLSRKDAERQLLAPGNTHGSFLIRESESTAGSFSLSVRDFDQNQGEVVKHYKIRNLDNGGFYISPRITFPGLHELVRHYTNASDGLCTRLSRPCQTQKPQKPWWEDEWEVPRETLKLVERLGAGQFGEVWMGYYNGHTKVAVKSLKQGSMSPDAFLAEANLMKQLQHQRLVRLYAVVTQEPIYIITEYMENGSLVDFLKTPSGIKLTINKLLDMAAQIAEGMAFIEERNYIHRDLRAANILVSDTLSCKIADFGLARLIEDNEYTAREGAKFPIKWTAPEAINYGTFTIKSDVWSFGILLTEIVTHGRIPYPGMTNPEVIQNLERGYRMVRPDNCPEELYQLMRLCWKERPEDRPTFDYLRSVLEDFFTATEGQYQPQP

| Structure (SMILES) | IC50 [µM] |
| --- | --- |
| COC(=O)[C@@H](Cc1ccc(O)c(O)c1)/N=C(S)\C=C\c1ccc(O)c(O)c1 | 162 |
| COC(=O)[C@@H](Cc1ccc(O)c(O)c1)NC/C=C/c1ccc(O)c(O)c1 | > 500 |
| CC[C@H](C)[C@H](NC(=O)[C@H](CCC(=O)O)NC(=O)[C@H](CCC(=O)O)NC(=O)[C@H](Cc1ccc(OP(=O)(O)O)cc1)NC(C)=O)C(=O)N[C@@H](CCC(=O)O)C(=O)O (Ac-[pY]EEIE-OH) | 1.5 |
| O=C(/C=C/c1ccc(O)c(O)c1)O[C@H](Cc1ccc(O)c(O)c1)C(=O)O [ROSMARINIC ACID] | 24 |

Continued by falling IC50, values first:

| IC50 [µM] | Structure (SMILES) |
| --- | --- |
| 149 | COC(=O)[C@@H](Cc1ccc(O)c(O)c1)N(C)C(=O)/C=C/c1ccc(O)c(O)c1 |
| 121 | COC(=O)[C@@H](Cc1ccc(O)c(O)c1)NC(=O)/C=C/c1ccc(O)c(O)c1 |
| 98 | COC(=O)[C@@H](Cc1ccc(O)c(O)c1)NC(=O)NCc1ccc(O)c(O)c1 |
| 20 | O=C(/C=C/c1ccc(O)c(O)c1)N[C@H](Cc1ccc(O)c(O)c1)C(=O)O |
